The source made the active and inactive calls. The rule behind the calls is not given here.
Tests used:
[1] = target: T1, Lysine-specific demethylase 5A (Homo sapiens, UniProt P29375); experiment: Inhibition of KDM5A (unknown origin) using substrate peptide/ascorbate/2-OG/ Fe(2) as substrate at 10 uM preincubated for 15 mins followed by addition of substrate peptide/ ascorbate/2-OG/ Fe(2) measured after 1 hr by AlphaLISA method
[2] = target: T1, Lysine-specific demethylase 5A; experiment: […] of KDM5A in human ZR-75-1 cells effect on H3K4me3 expression after 48 hrs by Western blot analysis; format: cell-based
[3] = target: Probable JmjC domain-containing histone demethylation protein 2C (Homo sapiens, UniProt Q15652); experiment: Inhibition of KDM3C (unknown origin) using substrate peptide/ascorbate/2-OG/ Fe(2) as substrate preincubated for 15 mins followed by addition of substrate peptide/ ascorbate/2-OG/ Fe(2) measured after 1 hr by AlphaLISA method
[4] = target: Lysine-specific demethylase 5B (Homo sapiens, UniProt Q9UGL1); experiment: Inhibition of KDM5B (unknown origin) using substrate peptide/ascorbate/2-OG/ Fe(2) as substrate preincubated for 15 mins followed by addition of substrate peptide/ ascorbate/2-OG/ Fe(2) measured after 1 hr by AlphaLISA method
Sequence of Lysine-specific demethylase 5B (Q9UGL1 whole entry): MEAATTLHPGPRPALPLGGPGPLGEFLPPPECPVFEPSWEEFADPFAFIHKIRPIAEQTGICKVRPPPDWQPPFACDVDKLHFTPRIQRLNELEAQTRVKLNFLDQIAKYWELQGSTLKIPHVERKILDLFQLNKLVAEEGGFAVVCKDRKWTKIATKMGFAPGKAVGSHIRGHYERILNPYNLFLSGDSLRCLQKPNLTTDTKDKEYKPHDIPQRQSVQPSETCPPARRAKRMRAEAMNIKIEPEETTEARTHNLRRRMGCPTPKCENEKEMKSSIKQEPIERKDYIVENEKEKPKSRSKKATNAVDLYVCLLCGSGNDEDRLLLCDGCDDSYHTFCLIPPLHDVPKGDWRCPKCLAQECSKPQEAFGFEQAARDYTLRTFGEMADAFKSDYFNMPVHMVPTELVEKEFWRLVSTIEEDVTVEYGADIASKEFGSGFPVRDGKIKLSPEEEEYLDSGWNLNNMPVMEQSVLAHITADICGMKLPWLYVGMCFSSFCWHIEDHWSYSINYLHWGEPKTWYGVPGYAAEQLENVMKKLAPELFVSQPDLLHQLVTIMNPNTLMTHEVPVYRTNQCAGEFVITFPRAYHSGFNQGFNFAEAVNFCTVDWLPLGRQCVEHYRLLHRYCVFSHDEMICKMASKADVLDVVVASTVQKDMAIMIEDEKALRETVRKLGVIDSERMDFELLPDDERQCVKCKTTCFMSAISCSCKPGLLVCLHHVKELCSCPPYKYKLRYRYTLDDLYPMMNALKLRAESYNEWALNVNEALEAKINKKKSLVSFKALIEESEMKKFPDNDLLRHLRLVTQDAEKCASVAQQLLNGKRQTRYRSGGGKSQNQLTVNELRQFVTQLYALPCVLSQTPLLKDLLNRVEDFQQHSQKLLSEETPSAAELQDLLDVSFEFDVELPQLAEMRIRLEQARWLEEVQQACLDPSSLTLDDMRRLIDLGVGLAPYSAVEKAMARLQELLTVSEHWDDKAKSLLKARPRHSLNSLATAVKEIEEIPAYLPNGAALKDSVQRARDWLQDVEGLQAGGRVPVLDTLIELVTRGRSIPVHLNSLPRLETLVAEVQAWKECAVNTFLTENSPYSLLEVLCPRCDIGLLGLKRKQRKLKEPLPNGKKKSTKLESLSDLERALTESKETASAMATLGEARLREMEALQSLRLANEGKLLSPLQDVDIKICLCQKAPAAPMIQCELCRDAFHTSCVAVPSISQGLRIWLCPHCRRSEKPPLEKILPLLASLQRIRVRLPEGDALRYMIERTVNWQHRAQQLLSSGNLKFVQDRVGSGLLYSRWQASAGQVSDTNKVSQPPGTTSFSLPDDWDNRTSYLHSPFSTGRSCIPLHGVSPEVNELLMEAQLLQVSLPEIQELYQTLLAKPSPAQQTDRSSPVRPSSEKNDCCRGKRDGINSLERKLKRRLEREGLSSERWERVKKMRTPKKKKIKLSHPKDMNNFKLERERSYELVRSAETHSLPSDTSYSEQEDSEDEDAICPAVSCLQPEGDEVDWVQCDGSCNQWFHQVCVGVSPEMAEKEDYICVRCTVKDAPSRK

[5] = target: Lysine-specific demethylase 6B (Homo sapiens, UniProt O15054); experiment: Inhibition of KDM6B (unknown origin) using substrate peptide/ascorbate/2-OG/ Fe(2) as substrate preincubated for 15 mins followed by addition of substrate peptide/ ascorbate/2-OG/ Fe(2) measured after 1 hr by AlphaLISA method
Sequence of Lysine-specific demethylase 6B (O15054 whole entry): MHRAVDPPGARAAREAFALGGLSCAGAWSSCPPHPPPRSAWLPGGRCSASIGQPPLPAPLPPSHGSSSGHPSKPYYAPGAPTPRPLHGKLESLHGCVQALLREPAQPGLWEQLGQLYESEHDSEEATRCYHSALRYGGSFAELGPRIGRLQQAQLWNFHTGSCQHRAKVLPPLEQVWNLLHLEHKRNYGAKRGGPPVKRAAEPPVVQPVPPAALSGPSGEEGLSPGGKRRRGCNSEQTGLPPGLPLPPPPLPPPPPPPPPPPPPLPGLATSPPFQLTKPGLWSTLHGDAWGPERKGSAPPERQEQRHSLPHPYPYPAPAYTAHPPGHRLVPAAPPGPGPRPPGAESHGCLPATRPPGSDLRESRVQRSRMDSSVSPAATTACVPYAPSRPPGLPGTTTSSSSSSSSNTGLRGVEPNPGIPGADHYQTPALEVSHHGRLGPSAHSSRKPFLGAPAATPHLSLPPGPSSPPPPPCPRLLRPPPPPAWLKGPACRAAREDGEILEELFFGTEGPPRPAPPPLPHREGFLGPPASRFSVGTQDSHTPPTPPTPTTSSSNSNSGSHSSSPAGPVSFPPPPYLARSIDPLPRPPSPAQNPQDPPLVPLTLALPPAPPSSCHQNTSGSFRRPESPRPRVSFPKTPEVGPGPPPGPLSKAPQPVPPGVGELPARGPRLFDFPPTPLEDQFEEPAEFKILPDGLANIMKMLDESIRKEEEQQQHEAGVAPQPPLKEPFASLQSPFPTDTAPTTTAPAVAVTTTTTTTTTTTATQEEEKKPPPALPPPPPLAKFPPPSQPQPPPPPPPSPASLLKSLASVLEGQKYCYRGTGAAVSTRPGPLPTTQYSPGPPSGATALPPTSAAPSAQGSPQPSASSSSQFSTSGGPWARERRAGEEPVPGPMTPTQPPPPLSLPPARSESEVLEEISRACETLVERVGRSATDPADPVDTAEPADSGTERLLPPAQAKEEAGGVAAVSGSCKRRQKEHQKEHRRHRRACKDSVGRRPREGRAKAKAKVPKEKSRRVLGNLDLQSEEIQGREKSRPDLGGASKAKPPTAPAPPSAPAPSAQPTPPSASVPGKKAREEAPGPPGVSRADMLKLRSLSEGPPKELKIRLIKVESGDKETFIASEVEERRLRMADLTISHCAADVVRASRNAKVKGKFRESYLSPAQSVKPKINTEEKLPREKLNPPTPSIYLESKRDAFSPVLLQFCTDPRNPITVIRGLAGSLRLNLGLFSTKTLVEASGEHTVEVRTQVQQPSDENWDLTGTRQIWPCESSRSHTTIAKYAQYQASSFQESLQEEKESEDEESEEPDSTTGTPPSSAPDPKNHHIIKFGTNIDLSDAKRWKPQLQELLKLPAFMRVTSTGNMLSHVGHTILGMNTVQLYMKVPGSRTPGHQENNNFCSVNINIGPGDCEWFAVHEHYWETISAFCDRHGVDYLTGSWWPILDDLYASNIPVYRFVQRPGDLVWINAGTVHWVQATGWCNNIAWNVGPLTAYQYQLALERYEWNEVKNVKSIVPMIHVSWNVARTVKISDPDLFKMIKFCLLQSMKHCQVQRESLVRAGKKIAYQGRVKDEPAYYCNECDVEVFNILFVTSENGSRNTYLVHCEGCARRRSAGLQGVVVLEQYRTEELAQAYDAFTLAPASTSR

[6] = target: T1, Lysine-specific demethylase 5A; experiment: Inhibition of KDM5A (unknown origin) using substrate peptide/ascorbate/2-OG/ Fe(2) as substrate preincubated for 15 mins followed by addition of substrate peptide/ ascorbate/2-OG/ Fe(2) measured after 1 hr by AlphaLISA method
[7] = target: T2, Lysine-specific demethylase 4E (Homo sapiens, UniProt B2RXH2); experiment: Inhibition of KDM4E (unknown origin) using substrate peptide/ascorbate/2-OG/ Fe(2) as substrate preincubated for 15 mins followed by addition of substrate peptide/ ascorbate/2-OG/ Fe(2) measured after 1 hr by AlphaLISA method
T2 sequence (B2RXH2 whole entry): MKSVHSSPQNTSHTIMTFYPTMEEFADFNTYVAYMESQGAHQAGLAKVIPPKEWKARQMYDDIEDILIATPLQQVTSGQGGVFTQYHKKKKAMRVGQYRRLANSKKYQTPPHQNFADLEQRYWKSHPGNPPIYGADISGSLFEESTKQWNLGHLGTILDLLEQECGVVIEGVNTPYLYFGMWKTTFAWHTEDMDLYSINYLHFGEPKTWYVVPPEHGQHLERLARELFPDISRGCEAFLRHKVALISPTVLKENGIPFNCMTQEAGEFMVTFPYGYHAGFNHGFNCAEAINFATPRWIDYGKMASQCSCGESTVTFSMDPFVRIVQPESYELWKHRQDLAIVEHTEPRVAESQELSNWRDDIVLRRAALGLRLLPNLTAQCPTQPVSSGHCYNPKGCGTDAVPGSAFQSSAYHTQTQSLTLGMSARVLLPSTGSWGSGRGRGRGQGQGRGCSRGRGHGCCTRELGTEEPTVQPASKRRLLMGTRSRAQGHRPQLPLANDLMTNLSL

[8] = target: T3, Lysine-specific demethylase 3A (Homo sapiens, UniProt Q9Y4C1); experiment: Inhibition of KDM3A (unknown origin) using substrate peptide/ascorbate/2-OG/ Fe(2) as substrate preincubated for 15 mins followed by addition of substrate peptide/ ascorbate/2-OG/ Fe(2) measured after 1 hr by AlphaLISA method
T3 sequence (Q9Y4C1 whole entry): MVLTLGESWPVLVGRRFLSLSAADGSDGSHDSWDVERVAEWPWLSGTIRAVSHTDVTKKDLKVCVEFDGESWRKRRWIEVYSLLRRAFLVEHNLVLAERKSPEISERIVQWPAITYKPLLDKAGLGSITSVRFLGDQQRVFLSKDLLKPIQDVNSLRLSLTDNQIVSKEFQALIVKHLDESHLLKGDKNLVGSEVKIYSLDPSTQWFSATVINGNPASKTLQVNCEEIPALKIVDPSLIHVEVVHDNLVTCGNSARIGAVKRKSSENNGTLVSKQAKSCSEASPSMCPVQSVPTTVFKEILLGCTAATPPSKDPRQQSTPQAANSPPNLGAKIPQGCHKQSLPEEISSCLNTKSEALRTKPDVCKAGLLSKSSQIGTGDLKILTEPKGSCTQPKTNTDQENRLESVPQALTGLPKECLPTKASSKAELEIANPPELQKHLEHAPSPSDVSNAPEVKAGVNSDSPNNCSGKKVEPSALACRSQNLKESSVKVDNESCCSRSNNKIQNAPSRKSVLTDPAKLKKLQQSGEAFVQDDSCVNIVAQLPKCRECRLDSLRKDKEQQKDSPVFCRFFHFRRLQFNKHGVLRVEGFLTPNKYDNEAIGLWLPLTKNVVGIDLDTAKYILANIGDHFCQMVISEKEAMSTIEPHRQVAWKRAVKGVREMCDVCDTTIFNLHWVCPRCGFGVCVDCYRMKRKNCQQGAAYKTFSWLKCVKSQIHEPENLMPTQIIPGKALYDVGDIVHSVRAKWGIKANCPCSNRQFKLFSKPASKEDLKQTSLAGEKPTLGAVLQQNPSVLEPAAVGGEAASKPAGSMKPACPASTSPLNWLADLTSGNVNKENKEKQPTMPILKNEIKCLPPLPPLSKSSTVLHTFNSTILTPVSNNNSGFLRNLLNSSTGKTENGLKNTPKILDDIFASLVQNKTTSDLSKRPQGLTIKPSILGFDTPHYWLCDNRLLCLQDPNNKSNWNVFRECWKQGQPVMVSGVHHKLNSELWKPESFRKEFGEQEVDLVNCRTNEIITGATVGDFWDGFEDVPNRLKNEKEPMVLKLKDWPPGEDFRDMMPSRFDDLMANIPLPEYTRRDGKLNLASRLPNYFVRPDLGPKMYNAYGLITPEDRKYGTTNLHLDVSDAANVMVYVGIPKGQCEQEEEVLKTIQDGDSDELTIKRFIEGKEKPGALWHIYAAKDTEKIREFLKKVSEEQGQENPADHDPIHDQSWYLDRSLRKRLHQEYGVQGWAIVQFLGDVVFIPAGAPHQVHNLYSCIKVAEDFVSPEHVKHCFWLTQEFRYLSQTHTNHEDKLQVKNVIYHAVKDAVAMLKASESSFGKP

T1 sequence (P29375 whole entry): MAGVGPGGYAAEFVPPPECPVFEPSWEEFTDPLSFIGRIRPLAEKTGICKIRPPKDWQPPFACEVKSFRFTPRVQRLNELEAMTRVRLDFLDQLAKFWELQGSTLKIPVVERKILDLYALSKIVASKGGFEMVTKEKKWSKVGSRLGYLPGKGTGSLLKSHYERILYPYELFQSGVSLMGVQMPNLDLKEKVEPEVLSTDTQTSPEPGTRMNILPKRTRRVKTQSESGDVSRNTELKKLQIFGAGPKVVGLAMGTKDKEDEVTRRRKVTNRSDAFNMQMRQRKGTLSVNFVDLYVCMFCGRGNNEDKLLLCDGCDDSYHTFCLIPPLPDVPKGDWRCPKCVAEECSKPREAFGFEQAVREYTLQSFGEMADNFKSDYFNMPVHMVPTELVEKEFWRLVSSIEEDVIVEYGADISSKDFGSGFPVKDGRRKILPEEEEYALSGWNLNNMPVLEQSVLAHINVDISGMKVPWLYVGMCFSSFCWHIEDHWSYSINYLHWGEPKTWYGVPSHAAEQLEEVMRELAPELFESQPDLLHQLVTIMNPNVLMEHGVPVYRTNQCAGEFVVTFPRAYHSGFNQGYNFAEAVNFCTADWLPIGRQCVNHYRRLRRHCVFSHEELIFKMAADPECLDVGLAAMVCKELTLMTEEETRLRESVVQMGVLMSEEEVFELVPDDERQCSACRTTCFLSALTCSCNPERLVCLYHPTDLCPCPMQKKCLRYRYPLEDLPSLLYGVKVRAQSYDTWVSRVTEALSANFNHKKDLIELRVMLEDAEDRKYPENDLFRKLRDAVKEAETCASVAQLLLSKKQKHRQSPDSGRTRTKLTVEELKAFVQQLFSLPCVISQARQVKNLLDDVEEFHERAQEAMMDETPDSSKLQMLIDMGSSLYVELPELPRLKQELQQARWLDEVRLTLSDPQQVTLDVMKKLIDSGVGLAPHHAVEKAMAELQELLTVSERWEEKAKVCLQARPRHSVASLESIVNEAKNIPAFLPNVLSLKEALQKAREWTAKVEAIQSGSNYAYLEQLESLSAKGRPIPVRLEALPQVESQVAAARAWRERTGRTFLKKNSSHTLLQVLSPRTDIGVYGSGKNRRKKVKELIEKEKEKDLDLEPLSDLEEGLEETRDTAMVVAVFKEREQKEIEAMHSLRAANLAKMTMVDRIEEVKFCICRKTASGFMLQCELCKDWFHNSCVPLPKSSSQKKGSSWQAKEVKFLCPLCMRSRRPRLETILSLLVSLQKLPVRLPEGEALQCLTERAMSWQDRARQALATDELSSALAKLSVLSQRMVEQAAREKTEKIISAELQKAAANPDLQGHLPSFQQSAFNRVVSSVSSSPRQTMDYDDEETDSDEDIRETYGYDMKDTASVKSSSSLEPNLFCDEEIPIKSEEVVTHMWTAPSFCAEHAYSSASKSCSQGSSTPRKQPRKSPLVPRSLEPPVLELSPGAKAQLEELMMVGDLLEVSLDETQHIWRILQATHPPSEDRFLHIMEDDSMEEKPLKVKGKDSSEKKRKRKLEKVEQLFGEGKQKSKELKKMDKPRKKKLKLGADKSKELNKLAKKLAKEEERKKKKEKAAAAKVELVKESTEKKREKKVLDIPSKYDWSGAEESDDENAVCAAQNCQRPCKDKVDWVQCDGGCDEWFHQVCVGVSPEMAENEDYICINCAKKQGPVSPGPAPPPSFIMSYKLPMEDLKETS

SMILES | inhibition [1] [%] | IC50 [6] [µM] | also measured
Cc1ccnc(N/N=C/c2ccccc2O)n1 | 44 | – | –
NNc1nccc(Oc2ccccc2)n1 | – | – | Activity [2]: inactive
Cc1ccnc(NN)n1 | -6 | – | Activity [2]: inactive
Oc1ccccc1/C=N/Nc1ncc(F)cn1 | – | – | Activity [2]: inactive
O=C(O)c1ccnc(N/N=C/c2ccccc2)n1 | 0 | – | –
O=C1c2ccccc2C(=O)c2c1ccc1c(=O)n(-c3ccc(Cl)cc3)[nH]c21 | – | 13 | –
O=C(COc1cc(O)c2c(=O)cc(-c3ccccc3)oc2c1)OCc1ccccc1 | – | 4.2 | –
NNc1nccc(C(F)(F)F)n1 | – | – | Activity [2]: inactive
NNc1ncc(Cl)cn1 | – | – | Activity [2]: inactive
NNc1nccc(-c2cccc(C(=O)O)c2)n1 | 26 | – | –
NNc1nccc(Oc2ccc(F)cc2)n1 | – | – | Activity [2]: inactive
Oc1ccccc1/C=N/Nc1nccc(N2CCOCC2)n1 | 42 | – | –
NNc1nccc(N2CCOCC2)n1 | – | – | Activity [2]: inactive
O=c1c2ccccc2oc2c(O)ccc(O)c12 | – | 25 | –
NNc1ncc2ccccc2n1 | – | – | Activity [2]: inactive
O=C(O)c1ccnc(N/N=C/c2ccccc2O)n1 | 88 | – | –
Cc1ccc(C(=O)c2coc3c2C(=O)C(=O)C(Br)=C3)cc1 | – | 5 | –
COc1ccc(Oc2ccnc(NN)n2)cc1 | – | – | Activity [2]: inactive
NNc1ncc(F)cn1 | 10 | – | –
Oc1ccccc1/C=N/Nc1ncc(F)c(N2CCOCC2)n1 | 58 | 2.3 | –
NNC(=O)c1ccc(O)cc1 | – | 13 | –
Oc1ccccc1/C=N/Nc1ncc(Cl)cn1 | 19 | – | –

Further lines, with some results ahead:

inhibition [1] [%] | IC50 [6] [µM] | SMILES | also measured
32 | – | Oc1ccccc1/C=N/Nc1ncccn1 | –
8 | – | NNc1ncccn1 | –
99 | 0.22 | NNc1nccc(C(=O)O)n1 | IC50 [3]: 1.9 µM; IC50 [4]: > 100 µM; IC50 [5]: > 100 µM; IC50 [7]: 13 µM; IC50 [8]: 43 µM
– | 7 | O=C(NNc1c2ccccc2nc2ccccc12)c1ccccn1 | –
– | 25 | c1ccc(Cc2nnc3sc(-c4ccccn4)nn23)cc1 | –
14 | – | N#Cc1ccc(Nc2nc(NN)ncc2[N+](=O)[O-])cc1 | –
0 | – | NNc1ncc(F)c(N2CCOCC2)n1 | –
– | 64 | CNc1ccccc(C(=O)/C=C/c2cccc(Oc3ccccc3)c2)c1=O | –
– | 83 | CCN(C1=C(Cl)C(=O)N(c2cccc(C)c2C)C1=O)c1ccccc1 | –
3 | – | O=C(O)c1ccnc(N/N=C/c2ccco2)n1 | –

Source: ChEMBL document CHEMBL3792324, “Discovery of KDM5A inhibitors: Homology modeling, virtual screening and structure-activity relationship analysis” (Bioorg Med Chem Lett, 2016)
